Measurements reported in patent publication US7771713B2, “Chemical composition that attract arthropods” (priority 1999, dated 2010).

Key:
Anopheles albimanus = assay: Olfactometer attraction test of compounds and compositions; format: in vivo;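 note: olfactometer with a treatment port and a matching control port using identical delivery device and conditions, both opened together, three tests per battery, each run in its own cage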
Aedes aegypti = assay: Olfactometer attraction test, treatment port vs control port, approximately 75 female mosquitoes; format: in vivo; conditions: for Response with Ace (%): base compound together with acetone; for Δ [(Resp with LA) − Resp] (%): difference between response with L-lactic acid and response alone; for Δ [(Resp with Ace) − Resp] (%): difference between response with acetone and response alone
Method: The tests were conducted in an olfactometer (55 ft^3/min airflow, 80° F., 60% R.H.) as described by Posey, J. Med. Entomol., 35, 330-334 (1998); and LA is lactic acid. Mosquitoes were allowed to settle at least one hour prior to testing. The olfactometer was cleaned after each battery of tests. Each battery consisted of three tests, conducted at 08:30, 11:00 and 13:00 hours local time. Each of the three tests was conducted in a separate cage. The control consisted of identical sample delivery devices and conditions compared to that of the treatment side. Both the treatment and control ports were opened and closed simultaneously when inserting a new treatment/control.

[1] = base compound alone (mode of action similar to lactic acid)
[2] = compound 500 μL together with L-lactic acid
[3] = compound alone, high dose of 500 μL
[4] = no Base, Activator1 dose 500, 60 mL glass petri dish
[5] = single compound, dose 500 (μL), 60 mL glass petri dish, Aedes aegypti attraction

CCCCCCC(=O)CCC [4-Decanone]
% caught (Anopheles albimanus; single treatment, 500 μL): 7.8%

C=CCCCCCC [1-octene]
Response (%) (Aedes aegypti; [1]): 38% | Response with Ace (%) (Aedes aegypti): 63% | Response with L-LA (%) (Aedes aegypti; [2]): 42% | Response (%) (Aedes aegypti; [3]): 38% | Δ [(Resp with LA) − Resp] (%) (Aedes aegypti): 4% | Δ [(Resp with Ace) − Resp] (%) (Aedes aegypti): 25%

CC=O [acetaldehyde]
Response with L-LA (%) (Aedes aegypti; [2]): 29% | Response (%) (Aedes aegypti; [3]): 8% | Δ [(Resp with LA) − Resp] (%) (Aedes aegypti): 21%

O=C(O)CO [glycolic acid]
Response (%) (Aedes aegypti; [1]): 17% | Δ [(Resp with Ace) − Resp] (%) (Aedes aegypti): 64%

CSSSC [dimethyl trisulfide]
% caught (Anopheles albimanus; single treatment, 500 μL): 91.8% | Response with L-LA (%) (Aedes aegypti; [2]): 67% | Response (%) (Aedes aegypti; [3]): 21% | Δ [(Resp with LA) − Resp] (%) (Aedes aegypti): 46% | Response Avg % (Aedes aegypti; [4]): 21.0%

CCCCCCCC(C)=O [2-nonanone]
% caught (Anopheles albimanus; single treatment, 500 μL): 27.0% | Response with L-LA (%) (Aedes aegypti; [2]): 12% | Response (%) (Aedes aegypti; [3]): 8% | Δ [(Resp with LA) − Resp] (%) (Aedes aegypti): 4%

CCCCCCCCCCC(C)=O [2-Dodecanone]
% caught (Anopheles albimanus; single treatment, 500 μL): 1.4%

CC(=O)C(=O)O [Pyruvic Acid]
% caught (Anopheles albimanus; single treatment, 500 μL): 1.4% | Response Avg % (Aedes aegypti; Base alone, dose 50 uL): 30.7%

C=CC(=O)CC [1-penten-3-one]
% caught (Anopheles albimanus; single treatment, 500 μL): 29.3% | Response with L-LA (%) (Aedes aegypti; [2]): 23% | Response (%) (Aedes aegypti; [3]): 19% | Δ [(Resp with LA) − Resp] (%) (Aedes aegypti): 4%

CC(C)S [2-Thiopropane]
% caught (Anopheles albimanus; single treatment, 500 μL): 20.5%

O=C(O)C(O)C(O)C(=O)O (centres unmarked) [tartaric acid]
Response (%) (Aedes aegypti; [1]): 9% | Response with Ace (%) (Aedes aegypti): 67% | Δ [(Resp with Ace) − Resp] (%) (Aedes aegypti): 58%

CC=CC(=O)CC [4-Hexen-3-one]
% caught (Anopheles albimanus; single treatment, 500 μL): 79.2%

C[S+](C)[O-] [dimethyl sulfoxide]
Response with L-LA (%) (Aedes aegypti; [2]): 30% | Response (%) (Aedes aegypti; [3]): 3% | Δ [(Resp with LA) − Resp] (%) (Aedes aegypti): 27%

N#CC(Cl)(Cl)Cl [Trichloroacetonitrile]
% caught (Anopheles albimanus; single treatment, 500 μL): 65.3%

CCCCCC(=O)CCCCC [6-Undecanone]
% caught (Anopheles albimanus; single treatment, 500 μL): 3.9%

CC(Cl)(Cl)Cl [1,1,1-Trichloroethane]
% caught (Anopheles albimanus; single treatment, 500 μL): 61.0%

CCCCC(=O)C(C)C [2-Methyl-3-Heptanone]
% caught (Anopheles albimanus; single treatment, 500 μL): 34.7%

CCCCCC(=O)C(C)C [2-Methyl-3-Octanone]
% caught (Anopheles albimanus; single treatment, 500 μL): 30.1%

C=CCCCCCCC [1-nonene]
Response (%) (Aedes aegypti; [1]): 6% | Response with Ace (%) (Aedes aegypti): 54% | Response with L-LA (%) (Aedes aegypti; [2]): 8% | Response (%) (Aedes aegypti; [3]): 6% | Δ [(Resp with LA) − Resp] (%) (Aedes aegypti): 2% | Δ [(Resp with Ace) − Resp] (%) (Aedes aegypti): 48%

CC(C)CC(=O)CC(C)C [2,6-Dimethyl-4-Heptanone]
% caught (Anopheles albimanus; single treatment, 500 μL): 18.7%

c1ccc2[nH]ccc2c1 [Indole]
% caught (Anopheles albimanus; single treatment, 500 μL): 1.3%

CCCS [1-Propanethiol]
% caught (Anopheles albimanus; single treatment, 500 μL): 24.0%

CCCCCCCCC=O [nonanal]
Δ [(Resp with LA) − Resp] (%) (Aedes aegypti): 10%

Nc1ccccn1 [2-Aminopyridine]
% caught (Anopheles albimanus; single treatment, 500 μL): 0.0%

Cn1cccc1 [1-Methylpyrrole]
% caught (Anopheles albimanus; single treatment, 500 μL): 10.7%

C=O [formaldehyde (37%), formaldehyde]
Response with L-LA (%) (Aedes aegypti; [2]): 5% | Response (%) (Aedes aegypti; [3]): 1% | Δ [(Resp with LA) − Resp] (%) (Aedes aegypti): 4%

CC(=O)C=CC=C(C)C [6-Methyl-3,5-Heptadien-2-one]
% caught (Anopheles albimanus; single treatment, 500 μL): 18.7%

BrC(Br)Br [bromoform]
Response with L-LA (%) (Aedes aegypti; [2]): 64% | Response (%) (Aedes aegypti; [3]): 27% | Δ [(Resp with LA) − Resp] (%) (Aedes aegypti): 37%

O=C(CCl)C(Cl)Cl [1,1,3-Trichloroacetone]
% caught (Anopheles albimanus; single treatment, 500 μL): 5.6%

CO [MeOH]
Response Avg % (Aedes aegypti; [4]): 10.0%

Cc1ccccc1 [toluene]
Response with L-LA (%) (Aedes aegypti; [2]): 59% | Response (%) (Aedes aegypti; [3]): 7% | Δ [(Resp with LA) − Resp] (%) (Aedes aegypti): 52%

ClCC(Cl)Cl [1,1,2-Trichloroethane]
% caught (Anopheles albimanus; single treatment, 500 μL): 64.4%

CCS [Ethanethiol]
% caught (Anopheles albimanus; single treatment, 500 μL): 40.0%

CCCCC [Pentane]
% caught (Anopheles albimanus; single treatment, 500 μL): 2.7%

CC=CC(C)=O [3-penten-2-one]
Response with L-LA (%) (Aedes aegypti; [2]): 49% | Response (%) (Aedes aegypti; [3]): 11% | Δ [(Resp with LA) − Resp] (%) (Aedes aegypti): 38%

CCCC(=O)OC [Methylbutyrate]
% caught (Anopheles albimanus; single treatment, 500 μL): 55.8%

C=O [Formaldehyde]
Response Avg % (Aedes aegypti; [5]): 1.0%

CCCC(=O)C(C)=O [2,3-Hexanedione]
% caught (Anopheles albimanus; single treatment, 500 μL): 2.7%

O=CO [Formic Acid]
% caught (Anopheles albimanus; in vivo): 0.0%

CC(C)C=O [Isobutanal]
Response Avg % (Aedes aegypti; [4]): 13.0%

C[C@@H](O)C(=O)O [D-lactic acid]
Response (%) (Aedes aegypti; [1]): 8% | Response with Ace (%) (Aedes aegypti): 82% | Δ [(Resp with Ace) − Resp] (%) (Aedes aegypti): 74%

CC(C)C=O [isobutyraldehyde]
Response with L-LA (%) (Aedes aegypti; [2]): 32% | Response (%) (Aedes aegypti; [3]): 13% | Δ [(Resp with LA) − Resp] (%) (Aedes aegypti): 19%

CCCCCCCCCCCC(C)=O [2-Tridecanone]
% caught (Anopheles albimanus; single treatment, 500 μL): 1.3%

CCOCC [diethyl ether]
Response with L-LA (%) (Aedes aegypti; [2]): 56% | Response (%) (Aedes aegypti; [3]): 25% | Δ [(Resp with LA) − Resp] (%) (Aedes aegypti): 31%

c1ccsc1 [Thiophene]
% caught (Anopheles albimanus; single treatment, 500 μL): 68.0%

CC(=O)C=C(C)C [Mesityl Oxide]
% caught (Anopheles albimanus; single treatment, 500 μL): 28.4%

C=CCCCCCCCCCCCC [1-Tetradecene]
% caught (Anopheles albimanus; single treatment, 500 μL): 1.4%

CCCCCC(=O)CC [3-Octanone]
% caught (Anopheles albimanus; single treatment, 500 μL): 25.0%

CC#N [acetonitrile]
Response with L-LA (%) (Aedes aegypti; [2]): 81% | Response (%) (Aedes aegypti; [3]): 27% | Δ [(Resp with LA) − Resp] (%) (Aedes aegypti): 54%

CCO [ethanol]
Response with L-LA (%) (Aedes aegypti; [2]): 57% | Response (%) (Aedes aegypti; [3]): 9% | Δ [(Resp with LA) − Resp] (%) (Aedes aegypti): 48%

CCCCCCCCCO [1-Nonanol]
% caught (Anopheles albimanus; single treatment, 500 μL): 4.1%

O=CC(=O)O [Glyoxylic Acid]
% caught (Anopheles albimanus; single treatment, 500 μL): 1.3%

CCOC(C)=O [Ethyl Acetate]
% caught (Anopheles albimanus; single treatment, 500 μL): 28.4%

ClC=C(Cl)Cl [Trichloroethylene]
% caught (Anopheles albimanus; single treatment, 500 μL): 57.9%

O=C(O)CC(O)C(=O)O (racemic) [DL-Malic Acid]
% caught (Anopheles albimanus; single substance, Crys dish (crystalline solid)): 0.0%

CO [methanol]
Response with L-LA (%) (Aedes aegypti; [2]): 66% | Response (%) (Aedes aegypti; [3]): 10% | Δ [(Resp with LA) − Resp] (%) (Aedes aegypti): 56%

c1cnccn1 [Pyrazine]
% caught (Anopheles albimanus; single treatment, 500 μL): 29.3%

C=CCSSCC=C [Allyl Disulfide]
% caught (Anopheles albimanus; single treatment, 500 μL): 0.0%

C=CC(O)CCCCC (centres unmarked) [1-Octen-3-ol]
% caught (Anopheles albimanus; single treatment, 500 μL): 24.0%

CCCCCCCCCC(C)=O [2-Undecanone]
% caught (Anopheles albimanus; single treatment, 500 μL): 4.2%

OCc1ccco1 [Furfuryl Alcohol]
% caught (Anopheles albimanus; single treatment, 500 μL): 46.7%

C[S+](C)[O-] [Dimethylsulfoxide]
Response Avg % (Aedes aegypti; [5]): 3.0%

CCCCCCCCCCCC(=O)O [Laurie Acid]
% caught (Anopheles albimanus; single treatment, 500 μL): 1.3%

C=CCCCCC [1-heptene]
Response (%) (Aedes aegypti; [1]): 4% | Response with Ace (%) (Aedes aegypti): 34% | Response with L-LA (%) (Aedes aegypti; [2]): 19% | Response (%) (Aedes aegypti; [3]): 5% | Δ [(Resp with LA) − Resp] (%) (Aedes aegypti): 14% | Δ [(Resp with Ace) − Resp] (%) (Aedes aegypti): 30% | Response Avg % (Aedes aegypti; [5]): 5.0%

CCCCC/C=C/C(C)=O [t-3-Nonen-2-one]
% caught (Anopheles albimanus; single treatment, 500 μL): 10.7%

CC(C)=CC(=O)C=C(C)C [Phorone]
% caught (Anopheles albimanus; single treatment, 500 μL): 50.6%

CC1=CC(=O)CC(C)(C)C1 [Isophorone]
% caught (Anopheles albimanus; single treatment, 500 μL): 13.3%

CC(=O)CCC(C)=O [Acetonylacetone]
% caught (Anopheles albimanus; single treatment, 500 μL): 0.0%

CC(=O)O [Acetic Acid]
% caught (Anopheles albimanus; single treatment, 500 μL): 2.7%

CC(=O)CCC(C)C [5-Methyl-2-Hexanone]
% caught (Anopheles albimanus; single treatment, 500 μL): 11.7%

CCCCCCCC(=O)CC [3-Decanone]
% caught (Anopheles albimanus; single treatment, 500 μL): 9.3%

CN1CCNCC1 [1-Methylpiperazine]
% caught (Anopheles albimanus; single treatment, 500 μL): 1.3%

C=CC(O)CCCC (centres unmarked) [1-hepten-3-ol]
Response with L-LA (%) (Aedes aegypti; [2]): 15% | Response (%) (Aedes aegypti; [3]): 10% | attraction of various mixtures and items (Aedes aegypti; default LA 200 μg, other chemicals 500 μL unless specified, containers as in the label): 7% | Δ [(Resp with LA) − Resp] (%) (Aedes aegypti): 5%

O=C=O [carbon dioxide, reference compound]
Response Avg % (Aedes aegypti; CO2 alone, dose 0.5, Aedes aegypti attraction): 4.0% | Response with L-LA (%) (Aedes aegypti; carbon dioxide 5 ml/min with L-lactic acid): 68%

CCC(=O)O [propanoic acid]
Response with L-LA (%) (Aedes aegypti; [2]): 1% | Response (%) (Aedes aegypti; [3]): 3% | Δ [(Resp with LA) − Resp] (%) (Aedes aegypti): −2% | Response Avg % (Aedes aegypti; [5]): 3.0%

ClC(Cl)=C(Cl)Cl [Tetrachloroethylene]
% caught (Anopheles albimanus; single treatment, 500 μL): 17.3%
